In the NIST ThermoML archive (doi:10.1021/acs.jced.9b00187):

Tests used:
[1] = Liquid; for vapor or sublimation pressure: Closed cell (Static) method; for viscosity: Moving piston method
[2] = xn = mol fraction of the nth substance listed; details: Liquid, Moving piston method

O=C=O [carbon dioxide]
[1]
Details | vapor or sublimation pressure [kPa]
282.15 K | 4392
287.11 K | 4961
291.84 K | 5555
296.64 K | 6214
301.38 K | 6928

CCCCCCCCCCCC [dodecane]
[1]
Details | viscosity [mPa·s]
284.6 K, 670 kPa | 1.75
284.6 K, 2190 kPa | 1.78
284.7 K, 2710 kPa | 1.79
284.7 K, 4240 kPa | 1.82
294 K, 8310 kPa | 1.63
322.3 K, 4240 kPa | 0.98
350.5 K, 690 kPa | 0.66
350.5 K, 4250 kPa | 0.68
350.5 K, 8310 kPa | 0.72
353.1 K, 8320 kPa | 0.69

CCCCCCCCCCCC [dodecane] + O=C=O
[2]
Details | viscosity [mPa·s]
283.7 K, 4630 kPa, x2 = 0.8 | 0.353
283.97 K, 4610 kPa, x2 = 0.8 | 0.362
284.33 K, 3710 kPa, x2 = 0.5999 | 0.578
284.41 K, 2630 kPa, x2 = 0.401 | 0.96
284.44 K, 2530 kPa, x2 = 0.401 | 0.972
284.6 K, 1460 kPa, x2 = 0.2009 | 1.227
305.43 K, 5410 kPa, x2 = 0.5999 | 0.487
305.44 K, 5360 kPa, x2 = 0.5999 | 0.498
305.64 K, 1770 kPa, x2 = 0.2009 | 0.865
305.65 K, 3610 kPa, x2 = 0.401 | 0.667
305.69 K, 1730 kPa, x2 = 0.2009 | 0.86
305.82 K, 6880 kPa, x2 = 0.8 | 0.272
328.83 K, 10780 kPa, x2 = 0.8 | 0.236
328.86 K, 7350 kPa, x2 = 0.5999 | 0.373
328.99 K, 4470 kPa, x2 = 0.401 | 0.493
329.3 K, 2050 kPa, x2 = 0.2009 | 0.585
350.19 K, 5510 kPa, x2 = 0.401 | 0.397
350.49 K, 14270 kPa, x2 = 0.8 | 0.208
350.95 K, 9320 kPa, x2 = 0.5999 | 0.305
351.33 K, 2490 kPa, x2 = 0.2009 | 0.437
